Data published in patent US20140357713A1, “ANTIMICROBIAL COMPOUNDS AND METHODS OF USE” (NexMed Holdings, Inc., priority 2012, published 2014).

What was measured:
pH (Table 1) = format: physicochemical
[1] = tested on: Pseudomonas aeruginosa (ATCC 27853); assay: Minimum inhibitory concentration (MIC) assay, Example 33; format: cell-based; conditions: for MIC: Table 19 summary
Experimental: (§1) Thirty compounds were tested for antimicrobial activity using standard procedures and standard strains for both the minimum inhibitory concentration (MIC) assay and a time kill study. Both the MIC assay and the time kill study were performed according to Clinical and Laboratory Standards Institute (CLSI) guidelines. Three bacteria strains, Escherichia coli (ATCC 25922), Pseudomonas aeruginosa (ATCC 27853), Staphulococcus aureus (ATCC 29213), and two fungus strains, Candida albicans (ATCC 90029) and Aspergillus niger (CMCC 98003), were used in the experiments.
(§2) Preparation of cultures. Before the experiment, two days for the bacteria strains and five days for fungus strains, an aliquot was removed from the cultures frozen at −80° C. Medium was added to the surface of an appropriate agar plate and streaked with the aliquot. The plate was incubated for 20 to 24 hrs at 35±2° C. for bacteria or for 5 days at 26-30° C. in incubator for fungus. From the resulting growth on each plate, one isolated colony of similar morphology was selected and re-streaked onto a fresh agar plate using a sterile disposable loop. The plate was incubated 20 to 24 hrs at 35±2° C. or for 5 days at 26-30° C. in an incubator.
(§3) Preparation of Assay Plates with Medium and Drugs. On the day of the assay, CAMHB medium or RPMI 1640 medium was removed from 4′C storage and allowed to reach room temperature. Ninety microliters (μL) of room temperature CAMHB or RPMI 1640 (supplemented with the appropriate concentration of DMSO, if required) were added to rows B-G of each 96-well microtiter plate. Using a pipette, duplicate 180 μL aliquots of each drug stock solution were added to column 1 (e.g. A1 and B1 or C1 and D1 or E1 and F1 or G1 and H1). Using a multichannel pipette or the Provision 2000 liquid handler, serial 2-fold dilutions (90 μL) were performed in each row across the plate to row G. Eighty μL of compounds dilutions were transferred to a 96-deep well plate. Medium, 1,520 μL of CAMHB or RPMI 1640, was added to each well. The contents of the wells were mixed thoroughly. A 50 μL aliquot of each of the resulting mixtures was transferred to a 96-well assay plate.
(§4) For bacteria, a sterile inoculating loop was used to transfer growth from an agar plate culture into about 5 mL of test medium. Using a turbidity meter, this inoculum was adjusted so that its density (600 nm) was equivalent to a 0.5 McFarland barium sulfate standard (0.08-0.13). The resulting suspension was diluted 1:100 into medium to obtain two times test inoculums.
(§5) For Aspergillus niger, sporulating colonies were covered with RPMI 1640, and a suspension was prepared by gently probing the colonies with the tip of a transfer pipette. The suspension was transferred to a sterile tube and mixed with a vortex mixer for 15 seconds. The densities at 530 nm were adjusted to 0.09-0.13 for each sample. The resulting suspension was diluted 1:50 with the medium to obtain two times test inoculums. Fifty μL/well of this inoculum suspension was added to wells of drug-containing plates (1:2 dilution). Plates were incubated at 35° C. for the appropriate times. The MIC was read and recorded according to CLSI guidelines.
(§6) The MIC values for thirty compounds against Escherichia coli, Pseudomonas aeruginosa, Staphulococcus aureus, Candida albicans, and Aspergillus niger were recorded and are presented in Table 3 and Table 4.

[2] = tested on: Escherichia coli (ATCC 25922); assay: as above; format: cell-based; conditions: for MIC: Table 19 summary of Example 33 and Example 35
Experimental: as §1, §2, §3, §4, §5, §6

[3] = tested on: Pseudomonas aeruginosa (ATCC 27853); assay: Time kill study, Example 33 (0 to 5 min); format: cell-based; conditions: 1×MIC
Experimental: as §1
(§7) The viable counts in Log10 CFU/mL at each time point were recorded.
(§8) Time kill studies. Strain suspensions were prepared as described above for the MIC test, and strain suspensions and compound solutions were mixed in the same volume. Samples were removed at specified times including 0 min, 30 sec, 1 min and 5 mins, were diluted in the test medium and streaked on agar. Colonies were counted after 24 to 48 hrs of incubation. […]

[4] = tested on: Escherichia coli (ATCC 25922); assay: Time kill study, Example 33 (0 to 5 min); format: cell-based; conditions: 1×MIC
Experimental: as §1, §7, §8

[5] = tested on: Staphylococcus aureus (ATCC 29213); assay: Time kill study, Example 33 (0 to 5 min); format: cell-based; conditions: 1×MIC
Experimental: as §1, §7, §8

[6] = tested on: Aspergillus niger (CMCC 98003); assay: Minimum inhibitory concentration (MIC) assay, Example 33; format: cell-based; conditions: for MIC: Table 19 summary
Experimental: as §1, §2, §3, §5, §6

[7] = tested on: Staphulococcus aureus (ATCC 29213); assay: as above; format: cell-based, Staphylococcus aureus; conditions: for MIC: Table 19 summary
Experimental: as §1, §2, §3, §4, §5, §6

[8] = tested on: Candida albicans (ATCC 90029); assay: as above; format: cell-based; conditions: for MIC: Table 19 summary
Experimental: as §1, §2, §3
For Candida albicans, a sterile inoculating loop was used to transfer growth from an agar plate culture into a tube with RPMI1640 medium. This inoculum was adjusted so that its density at 530 nm was in the ranges from 0.08 to 0.13. The resulting suspension was diluted 1:50 and further diluted 1:20 with the medium to obtain two times test inoculums.
as §5, §6

| Structure (SMILES) | pH (pH (Table 1)) | MIC [1] | MIC P. aeruginosa ([1]; n = 1) | MIC P. aeruginosa ([1]; n = 2) | MIC [2] | MIC E. coli ([2]; n = 1) | MIC E. coli ([2]; n = 2) | Viable counts, Pseudomonas aeruginosa time kill study ([3]; 0.5 min) | Viable counts, Pseudomonas aeruginosa time kill study ([3]; 1 min) | Viable counts, Pseudomonas aeruginosa time kill study ([3]; 5 min) | Viable counts, Pseudomonas aeruginosa time kill study ([3]; time 0) | Viable counts, Escherichia coli time kill study ([4]; 0.5 min) | Viable counts, Escherichia coli time kill study ([4]; 1 min) | Viable counts, Escherichia coli time kill study ([4]; 5 min) | Viable counts, Escherichia coli time kill study ([4]; time 0) | Viable counts, Staphylococcus aureus time kill study ([5]; 0.5 min) | Viable counts, Staphylococcus aureus time kill study ([5]; 1 min) | Viable counts, Staphylococcus aureus time kill study ([5]; 5 min) | Viable counts, Staphylococcus aureus time kill study ([5]; time 0) | MIC [6] | also measured |
| --- | --- | --- | --- | --- | --- | --- | --- | --- | --- | --- | --- | --- | --- | --- | --- | --- | --- | --- | --- | --- | --- |
| CCCCCCCCCCCCOC(=O)C(C)N(C)C (stereo not drawn) [Nex-30, Dodecyl 2-(dimethylamino)propanoate ethanesulfonate] | 3.79 | 6250 µg/mL | 6250 µg/mL | 6250 µg/mL | 3130 µg/mL | 3130 µg/mL | 3130 µg/mL | <4.0 Log10 CFU/mL | <3.70 Log10 CFU/mL | <3.52 Log10 CFU/mL | 5.67 Log10 CFU/mL | 5.46 Log10 CFU/mL | 3.7 Log10 CFU/mL | <3.52 Log10 CFU/mL | 5.83 Log10 CFU/mL | 6.23 Log10 CFU/mL | 6.22 Log10 CFU/mL | 6.21 Log10 CFU/mL | 6.24 Log10 CFU/mL | >12500 µg/mL | MIC Aspergillus niger ([6]; n = 1): >12500 µg/mL; MIC Aspergillus niger ([6]; n = 2): >12500 µg/mL; MIC [7]: 3130 µg/mL; MIC S. aureus ([7]; n = 1): 3130 µg/mL; MIC S. aureus ([7]; n = 2): 3130 µg/mL; MIC [8]: >12500 µg/mL; MIC Candida albicans ([8]; n = 1): >12500 µg/mL; MIC Candida albicans ([8]; n = 2): >12500 µg/mL |
| CCCCCCCCCCCCOC(=O)[C@@H](C)N(C)C.Cl [Nex-56, D-Dodecyl 2-(dimethylamino)propanoate hydrochloride] | 1.70 | 6250 µg/mL | 6250 µg/mL | 6250 µg/mL | 3130 µg/mL | 3130 µg/mL | 3130 µg/mL | <4.0 Log10 CFU/mL | <3.70 Log10 CFU/mL | <3.52 Log10 CFU/mL | 5.56 Log10 CFU/mL | <4.0 Log10 CFU/mL | <3.70 Log10 CFU/mL | <3.52 Log10 CFU/mL | 5.92 Log10 CFU/mL | 6.27 Log10 CFU/mL | 6.16 Log10 CFU/mL | 5.9 Log10 CFU/mL | 6.33 Log10 CFU/mL | >12500 µg/mL | MIC Aspergillus niger ([6]; n = 1): >12500 µg/mL; MIC Aspergillus niger ([6]; n = 2): >12500 µg/mL; MIC [7]: 3130 µg/mL; MIC S. aureus ([7]; n = 1): 3130 µg/mL; MIC S. aureus ([7]; n = 2): 3130 µg/mL; MIC [8]: >12500 µg/mL; MIC Candida albicans ([8]; n = 1): >12500 µg/mL; MIC Candida albicans ([8]; n = 2): >12500 µg/mL |
| CCCCCCCCCCCCOC(=O)[C@H](C)N(C)C.Cl [Nex-57, L-Dodecyl 2-(dimethylamino)propanoate hydrochloride] | 1.57 | 6250 µg/mL | 6250 µg/mL | 6250 µg/mL | 3130 µg/mL | 3130 µg/mL | 3130 µg/mL | <4.0 Log10 CFU/mL | <3.70 Log10 CFU/mL | <3.52 Log10 CFU/mL | 5.45 Log10 CFU/mL | <4.0 Log10 CFU/mL | <3.70 Log10 CFU/mL | <3.52 Log10 CFU/mL | 5.78 Log10 CFU/mL | 6.17 Log10 CFU/mL | 6.19 Log10 CFU/mL | 5.92 Log10 CFU/mL | 6.29 Log10 CFU/mL | >12500 µg/mL | MIC Aspergillus niger ([6]; n = 1): >12500 µg/mL; MIC Aspergillus niger ([6]; n = 2): >12500 µg/mL; MIC [7]: 3130 µg/mL; MIC S. aureus ([7]; n = 1): 3130 µg/mL; MIC S. aureus ([7]; n = 2): 3130 µg/mL; MIC [8]: >12500 µg/mL; MIC Candida albicans ([8]; n = 1): >12500 µg/mL; MIC Candida albicans ([8]; n = 2): >12500 µg/mL |
